Test system: tumor cells
Assay: Resistance study with 30 passages
Assay type: cell-based
From the text: It has been shown that the problem can be solved by encapsulation of the polymeric guanidine derivate in PEGylated liposomes, which ensures that the drug substance reaches its target in higher concentrations, e.g. the malignant tumor cells. […] The commonly known cytostatics induce such cellular resistance mechanisms requiring higher, toxic doses, which cause severe side effects.

With “poly-[2-(2-ethoxyethoxyethyl)guanidinium hydrochloride] [API]” the “reduction of activity (induction of resistance)” value was “no reduction of activity”.

From patent publication US20130315982A1, “LIPOSOMAL DRUG COMPOSITION CONTAINING A POLYMERIC GUANIDINE DERIVATIVE” (MINDINVEST HOLDINGS LTD., priority 2010, published 2013)
